Measured values from US20130303566A1, “METHOD FOR TREATING MACULAR DEGENERATION” (DAVID W. HILL, priority 2012, published 2013).

Legend:
[1] = tested on: patients with dry AMD; conditions: 60 mcg PGE1 as alprostadil, intravenous infusion daily for 15 days, 15 patients with dry AMD; cited from earlier work
[2] = tested on: patient with AMD; conditions: human, in vivo
Method: To test the hypothesis that vasodilators can successfully treat AMD, TriMix injectable blend was obtained containing, in 10 ml of water, 0.4 ml ethanol, 0.3 g papaverine hydrochloride, 0.02 g phentolamine mesylate and 200 mcg prostaglandin. E1 (PGE1 or “alprostadil”), with 0.01 ml benzyl alcohol. […] The following example explores the role of administering Trimix to a patient with AMD.
Initial doses were 1 mcg alprostadil, but were upped to 2 mcg of alprostadil for a period of time and then lowered to the original dose. Thus, on a daily basis, 0.85-0.10 mL of the above TriMix blend can be injected into the patient, delivering 1-2 mcg alprostadil, 0.1-0.2 mg phentolamine and 1.5-3.0 mg of papaverine.

[3] = tested on: damaged macular area; parameters: species or system human; conditions: in vivo

Compound: CCCCC[C@H](O)/C=C/[C@H]1[C@H](O)CC(=O)[C@@H]1CCCCCCC(=O)O [PGE1, (11α,13E,15S)-11,15-Dihydroxy-9-osoprost-13-en-1-oic acid]
- trial outcome [1]: lack of statistically significant results
- tolerability of high doses [2]: without any problems

Compound: CC(=O)Oc1ccccc1C(=O)O [aspirin]
- effect on vision [3]: cause the mask of the damaged macular area to appear colored, such as bright red, can cause misty vision

Compound: COc1ccc2cc([C@H](C)C(=O)O)ccc2c1 [naproxen sodium]
- effect on vision [3]: cause the mask of the damaged macular area to appear colored, such as bright red, can cause misty vision

Compound: CC(=O)Nc1ccc(O)cc1 [acetaminophen]
- effect on vision [3]: cause the mask of the damaged macular area to appear colored, such as bright red, can cause misty vision
